Results on one compound are retold here after BindingDB's records for doi:10.1124/jpet.300.3.1122 (Sanofi-Synthelabo Recherche, 2002).

In one experiment the target is T1, Oxytocin receptor (Rattus norvegicus, UniProt P70536).
T1 sequence (P70536 whole entry): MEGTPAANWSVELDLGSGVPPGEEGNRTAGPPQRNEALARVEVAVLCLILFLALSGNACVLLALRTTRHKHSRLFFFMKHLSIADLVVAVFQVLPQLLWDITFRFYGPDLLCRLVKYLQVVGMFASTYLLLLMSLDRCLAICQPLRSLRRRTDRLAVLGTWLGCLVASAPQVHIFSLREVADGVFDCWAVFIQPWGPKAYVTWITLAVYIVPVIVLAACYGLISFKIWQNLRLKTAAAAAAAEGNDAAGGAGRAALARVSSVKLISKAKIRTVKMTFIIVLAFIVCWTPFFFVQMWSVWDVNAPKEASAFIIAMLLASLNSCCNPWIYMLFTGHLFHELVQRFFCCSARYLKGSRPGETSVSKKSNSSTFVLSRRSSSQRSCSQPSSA

Another experiment addresses Vasopressin V2 receptor (Rattus norvegicus, UniProt Q00788).
A further experiment deals with Vasopressin V1a receptor (Rattus norvegicus, UniProt P30560).
Chain of Vasopressin V1a receptor (P30560 whole entry): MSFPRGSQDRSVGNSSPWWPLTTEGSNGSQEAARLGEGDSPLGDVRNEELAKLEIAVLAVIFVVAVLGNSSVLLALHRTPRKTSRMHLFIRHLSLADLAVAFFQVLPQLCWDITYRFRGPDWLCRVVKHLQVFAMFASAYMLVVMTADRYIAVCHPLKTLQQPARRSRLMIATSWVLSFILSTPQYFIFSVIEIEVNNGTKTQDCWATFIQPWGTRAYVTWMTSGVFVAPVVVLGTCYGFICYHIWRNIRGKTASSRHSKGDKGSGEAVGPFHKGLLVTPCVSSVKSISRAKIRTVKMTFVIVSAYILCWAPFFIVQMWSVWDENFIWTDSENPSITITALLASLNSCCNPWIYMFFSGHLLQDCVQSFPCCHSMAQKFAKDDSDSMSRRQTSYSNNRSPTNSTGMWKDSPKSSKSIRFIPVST
The next experiment concerns the target T2, Vasopressin V1b receptor (Bos taurus, UniProt F1ME85).
T2 sequence (F1ME85 whole entry): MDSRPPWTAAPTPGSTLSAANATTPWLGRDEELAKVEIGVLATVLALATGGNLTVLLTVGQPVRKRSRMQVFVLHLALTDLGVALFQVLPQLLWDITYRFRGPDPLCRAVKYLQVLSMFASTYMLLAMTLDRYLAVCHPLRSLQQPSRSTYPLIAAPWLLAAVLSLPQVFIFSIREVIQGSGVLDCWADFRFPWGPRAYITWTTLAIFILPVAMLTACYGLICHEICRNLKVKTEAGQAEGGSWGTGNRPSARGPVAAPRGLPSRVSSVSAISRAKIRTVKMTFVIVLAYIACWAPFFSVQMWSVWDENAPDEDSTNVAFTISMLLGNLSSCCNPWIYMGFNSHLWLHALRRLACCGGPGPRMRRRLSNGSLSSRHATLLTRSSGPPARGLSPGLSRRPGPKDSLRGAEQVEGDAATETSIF

Chain of Vasopressin V2 receptor (Q00788 whole entry): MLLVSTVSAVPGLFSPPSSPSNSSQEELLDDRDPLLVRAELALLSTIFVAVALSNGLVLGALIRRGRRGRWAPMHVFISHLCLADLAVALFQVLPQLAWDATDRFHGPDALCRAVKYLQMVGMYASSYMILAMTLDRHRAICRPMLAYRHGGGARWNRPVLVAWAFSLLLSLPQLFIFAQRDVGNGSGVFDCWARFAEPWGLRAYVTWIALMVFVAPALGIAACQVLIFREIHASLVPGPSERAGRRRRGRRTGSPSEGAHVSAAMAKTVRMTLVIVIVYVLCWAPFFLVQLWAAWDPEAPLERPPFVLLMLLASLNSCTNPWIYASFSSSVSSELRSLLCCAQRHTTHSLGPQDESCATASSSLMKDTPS

As usually defined, the Ki is the dissociation constant of the complex between target and ligand, obtained from inhibition or displacement. Regarding `COc1ccc(S(=O)(=O)N2C(=O)[C@@](c3ccccc3OC)(N3C[C@H](O)C[C@H]3C(=O)N(C)C)c3cc(Cl)ccc32)c(OC)c1` [SSR149415], the Ki at Oxytocin receptor came to 270 nM; on Vasopressin V2 receptor it was 2900 nM; at Vasopressin V1a receptor, 1050 nM; on Vasopressin V1b receptor it was 2.7 nM.
